“And” between values parts separate entries of the source, which are not always exact repeats. Identical values can stand only once.
What was measured:
[1] = test system: L6-GLUT4myc myotubes; assay: GLUT4 translocation: cell surface GLUT4myc by anti-Myc antibody assay in L6-GLUT4myc myotubes; assay type: cell-based, rat
[2] = test system: 3T3-L1-GLUT4myc adipocytes; assay: In vitro cellular 2-DG uptake in 3T3-L1-GLUT4myc adipocytes; assay type: cell-based; conditions: for Ratio: 2-DG uptake normalized to vehicle; for A - background / A: dpm: 2-DG uptake
Experimental: (§1) The L6-GLUT4myc rat myoblast cell line was obtained from Dr. Amira Klip and Dr. Philip Bilan, through a license granted by The Hospital for Sick Children, 555 University Avenue, Toronto, Ontario, Canada M5G 1 × 8; or purchased from Kerafast, Boston, MA (ESK202)[43]. The 3T3-L1-GLUT4myc fibroblast cell line was provided by Dr. Tomoyuki Yuasa, Tokushima University[44]. L6-GLUT4myc myoblasts were grown in MEMα (32571036, Thermo Fisher Scientific, Waltham, MA) supplemented with 10% FBS and 1% antibiotics, and then induced to differentiate into myotubes in MEMα supplemented with 2% FBS and 1% antibiotics for 5–8 days. 3T3-L1-GLUT4myc fibroblasts were induced to differentiate into adipocytes as described previously,[45] with minor modifications. Briefly, cells were grown to confluence in growth medium: DMEM (10569010, Thermo Fisher Scientific) supplemented with 10% FBS and 1% antibiotics, and then induced to differentiate into adipocytes in growth medium supplemented with 1 μM dexamethasone, 2 μM rosiglitazone, 0.5 mM isobutylmethylxanthine, and 10 μg mL^−1 insulin for 2 days. The adipocytes were then cultured in growth medium supplemented with 10 μg mL^−1 insulin for a few days before being used for the experiments.
L6-GLUT4myc myotubes and 3T3-L1-GLUT4myc adipocytes were incubated in the wells of a 24-well plate containing serum-free medium for 3 h at 37 °C and then incubated in glucose-free medium for 30 min at 37 °C. The cells were treated with the indicated concentrations of DS20060511 or insulin for 30 min at 37 °C, followed by the addition of 1 mM 2-deoxy-D-glucose (2-DG) and 0.3 μCi mL^−1 [^3H]-2-DG for 10 min. 2-DG uptake was measured with a liquid scintillation counter (Tri-Carb 2810TR, PerkinElmer, Waltham, MA) and normalized to the level in the vehicle-treated group.

[3] = test system: L6-GLUT4myc myotubes; assay: GLUT4 translocation: cell surface GLUT4myc by anti-Myc antibody assay in L6-GLUT4myc myotubes; assay type: cell-based, rat; design: key to GLUT4 translocation: fold of vehicle-treated group; conditions: for Ratio: GLUT4 translocation normalized to vehicle; for A - background / A: Abs. (450 nm): GLUT4 translocation
Experimental: as §1
Cell surface GLUT4 levels in the L6-GLUT4myc myoblasts and myotubes were determined by antibody binding assay as described previously[43],[44], with minor modifications. Briefly, cells in a 96- or 24-well plate were starved in serum-free MEMα (0.1% BSA and 1% antibiotics) for 3 h and then treated with the indicated concentrations of DS20060511 and/or insulin for 30 min at 37 °C. After fixation with 4% paraformaldehyde, the cells were incubated with 1% glycine in PBS at 4 °C for 10 min, and blocked with 10% normal goat serum and 3% BSA in PBS at 4 °C for 30 min. The cells were then incubated with anti-c-Myc antibody (sc-40, 1:500) diluted with blocking buffer at 4 °C for 1 h, washed with cold PBS(+), incubated with HRP-conjugated anti-mouse IgG diluted with blocking buffer at 4 °C for 30 min, and then washed again. SuperSignal ELISA Pico Chemiluminescent Substrate (Thermo Fisher Scientific) was added and the luminescent signal was measured. To investigate GLUT4 translocation in the 3T3-L1-GLUT4myc adipocytes, the cells were prepared in a 24-well plate, and anti-c-Myc antibody (sc-789, 1:1000), HRP-conjugated anti-rabbit IgG and SIGMAFAST OPD regent (Sigma–Aldrich) were added for optical detection of the cell surface GLUT4myc levels. The GLUT4 translocation activity was normalized to that in the vehicle-treated group.

[4] = test system: L6-GLUT4myc myotubes; assay: Fluorescence immunostaining of cell surface GLUT4 and actin fibers in L6-GLUT4myc myotubes; assay type: cell-based, rat; conditions: 30 μM DS20060511 or 100 nM insulin; Fig. 4c
Experimental: Arrowheads indicate the characteristic ruffled structure of the polymerized actin and actin-associated surface GLUT4. d GLUT4 translocation activity of 30 μM DS20060511 or 100 nM insulin in the presence of the actin polymerization inhibitor, Latrunculin B, at the indicated concentrations. Values shown are means ± SEM, n = 3. **P < 0.01 vs. 0 nM Latrunculin B by one-way ANOVA followed by Dunnett’s test. e Concentration-dependent insulin-stimulated GLUT4 translocation in L6-GLUT4myc myotubes with or without 30 μM DS20060511 (n = 3). f Concentration-dependent DS20060511-stimulated 2-DG uptake with 100 nM insulin in isolated muscles from C57BL/6 mice (n = 3). Values shown are means ± SEM. ***P < 0.001 by one-way ANOVA followed by Tukey’s test. g Blood glucose levels during ITT in STZ-treated C57BL/6 mice (n = 6–7). Vehicle or indicated dose of DS20060511 was given orally at the same time as 0.1 U kg^−1 insulin injection intraperitoneally. Values shown are means ± SEM. *P < 0.05 vs. vehicle by one-way ANOVA followed by Dunnett’s test. c Scale bar in all panels, 5 μm. Uncropped blots for a and b can be found in Supplementary Fig. 6.
Differentiated L6-GLUT4myc myotubes were prepared in a collagen-coated four-well chamber slide. After serum starvation for 3 h, the cells were stimulated with insulin or DS20060511 for 15 min at 37 °C. Cells were rinsed with cold PBS(+), fixed with 4% paraformaldehyde for 30 min on ice and blocked with 1% BSA and 10% normal goat serum in PBS(+) for 30 min at room temperature. Surface GLUT4myc staining was carried out without cell membrane permeabilization. Cells were incubated with anti-c-Myc antibody for 30 min at room temperature, followed by treatment with 0.1% Triton-X. After blocking, the cells were incubated with Alexa 488-conjugated secondary antibody and Alexa 594-conjugated phalloidin for 30 min at room temperature. Fluorescence images were obtained with a Leica TSC-SP8 confocal microscope. Specimens were scanned along the z-axis and a single-composite image was generated by the maximal projection method using the LAS software (Leica Microsystems, Wetzlar, Germany).

Compound: COc1ccc2c(C)c(C(=O)O)ccc2c1C1C2=C(CC(C)(C)CC2=O)OC2=C1C(=O)CC(C)(C)C2 [DS20060511]
- A: Abs. (450 nm) ([1]; DS20060511 0.1 μM, replicates 1-3): 0.190 (2×) and 0.196
- Ratio ([2]; DS20060511 0.1 μM): 1.50 and 1.09 and 1.18
- Ratio ([2]; DS20060511 1 μM): 1.43 and 1.24 and 1.47
- Ratio ([2]; DS20060511 10 μM): 1.53 and 1.62 and 1.75
- A - background ([2]; DS20060511 0.1 μM): 846 dpm and 912 dpm and 1164 dpm
- A: dpm ([2]; DS20060511 0.1 μM): 1342 dpm and 1408 dpm and 1660 dpm
- A - background ([2]; DS20060511 1 μM): 957 dpm and 1138 dpm and 1108 dpm
- A: dpm ([2]; DS20060511 1 μM): 1453 dpm and 1634 dpm and 1604 dpm
- A - background ([2]; DS20060511 10 μM): 1255 dpm and 1357 dpm and 1185 dpm
- A: dpm ([2]; DS20060511 10 μM): 1751 dpm and 1853 dpm and 1681 dpm
- GLUT4 translocation on co-treatment with insulin ([3]; 30 μM DS20060511 plus insulin, also at saturating insulin concentration, Fig. 4e): additive increase of GLUT4 translocation
- GLUT4 translocation ([3]; DS20060511 30 μM, Latrunculin B 0 nM, normalized to vehicle): 1.94 and 1.98 and 1.81
- GLUT4 translocation ([3]; DS20060511 30 μM, Latrunculin B 10 nM): 2.29 and 2.23 and 2.10
- GLUT4 translocation ([3]; DS20060511 30 μM, Latrunculin B 30 nM): 1.81 and 2.08 and 1.91
- GLUT4 translocation ([3]; DS20060511 30 μM, Latrunculin B 100 nM): 2.37 and 2.30 and 2.39
- GLUT4 translocation ([3]; DS20060511 30 μM, Latrunculin B 200 nM): 2.39 and 2.15 and 2.06
- Ratio ([3]; DS20060511 0.1 μM): 1.26 and 1.33
- Ratio ([3]; DS20060511 1 μM): 1.71 and 1.72 and 1.90
- Ratio ([3]; DS20060511 10 μM): 2.15 and 2.14 and 2.27
- A - background ([3]; DS20060511 0.1 μM): 0.100 and 0.106
- A - background ([3]; DS20060511 1 μM): 0.137 and 0.151 and 0.136
- A: Abs. (450 nm) ([3]; DS20060511 1 μM): 0.227 and 0.241 and 0.226
- A - background ([3]; DS20060511 10 μM): 0.170 and 0.180 and 0.171
- A: Abs. (450 nm) ([3]; DS20060511 10 μM): 0.260 and 0.270 and 0.261
- GLUT4 translocation (in words) ([3]; differentiated L6-GLUT4myc myotubes, Fig. 1b): increased GLUT4 translocation in differentiated L6-GLUT4myc myotubes in a concentration-dependent manner
- actin polymerization [4]: observed only following insulin treatment
- staining of GLUT4 at the cell surface [4]: strong staining of GLUT4 at the cell surface

Compound: Insulin: Insulin (Humulin, Eli Lilly) in the in vivo experiments; Insulin solution human (I9278, Sigma–Aldrich) in the in vitro experiments
- A: Abs. (450 nm) ([1]; Insulin 100 nM): 0.287 and 0.285 and 0.286
- Ratio ([2]; Insulin 1 nM): 12.31 and 11.72 and 12.41
- Ratio ([2]; Insulin 10 nM): 13.43 and 13.26 and 13.52
- Ratio ([2]; Insulin 100 nM): 12.21 and 13.79 and 13.94
- A - background ([2]; Insulin 1 nM): 9081 dpm and 9610 dpm and 9537 dpm
- A: dpm ([2]; Insulin 1 nM): 9577 dpm and 10106 dpm and 10033 dpm
- A - background ([2]; Insulin 10 nM): 10270 dpm and 10470 dpm and 10402 dpm
- A: dpm ([2]; Insulin 10 nM): 10766 dpm and 10966 dpm and 10898 dpm
- A - background ([2]; Insulin 100 nM): 10682 dpm and 10795 dpm and 9457 dpm
- A: dpm ([2]; Insulin 100 nM): 11178 dpm and 11291 dpm and 9953 dpm
- 2-DG uptake (in words) ([2]; differentiated 3T3-L1-GLUT4myc adipocytes, Fig. 1e): increase 2-DG uptake
- Ratio ([3]; Insulin 1 nM): 1.41 and 1.40 and 1.33
- Ratio ([3]; Insulin 10 nM): 1.91 and 1.96 and 1.84
- Ratio ([3]; Insulin 100 nM): 2.47 and 2.48 and 2.46
- A - background ([3]; Insulin 1 nM): 0.111 and 0.106 and 0.112
- A: Abs. (450 nm) ([3]; Insulin 1 nM): 0.201 and 0.196 and 0.202
- A - background ([3]; Insulin 10 nM): 0.156 and 0.146 and 0.152
- A: Abs. (450 nm) ([3]; Insulin 10 nM): 0.246 and 0.236 and 0.242
- A - background ([3]; Insulin 100 nM): 0.196 and 0.194 and 0.195
- GLUT4 translocation ([3]; Insulin 100 nM, Latrunculin B 0 nM, normalized to vehicle): 3.11 and 3.04 and 3.07
- GLUT4 translocation ([3]; Insulin 100 nM, Latrunculin B 10 nM): 3.38 and 3.09 and 3.08
- GLUT4 translocation ([3]; Insulin 100 nM, Latrunculin B 30 nM): 2.53 and 2.30 and 2.42
- GLUT4 translocation ([3]; Insulin 100 nM, Latrunculin B 100 nM): 2.62 and 2.09 and 2.39
- GLUT4 translocation ([3]; Insulin 100 nM, Latrunculin B 200 nM): 2.01 and 1.93
- actin polymerization [4]: observed only following insulin treatment
- staining of GLUT4 at the cell surface [4]: strong staining of GLUT4 at the cell surface
